From patent publication US12404289B2 (Gilead Sciences, Inc., priority 2020, dated 2025) come the findings set out here.

In one test the test system is Respiratory syncytial virus (RSV) strain A2. The test can be described thus: Hep-2 RSV2 384-well assay (EC50-HEP2-384). The test is classed as cell-based. The note with it: HEp-2 cells, RSV A2, MOI=4, 4 days, Table 3.
`CCCOC(=O)[C@H](C)NP(=O)(OC[C@H]1O[C@@](C#N)(c2ccc3c(N)ncnn23)[C@H](O)[C@@H]1O)Oc1ccc(C(C)(C)C)cc1` (single isomer, unassigned) [Example 47b] had an EC50 of 68.3 nM.
Consider `CCCOC(=O)[C@H](C)NP(=O)(OC[C@H]1O[C@@](C#N)(c2ccc3c(N)ncnn23)[C@H](OC(=O)C(C)C)[C@@H]1OC(=O)C(C)C)Oc1ccc(C(C)(C)C)cc1` (single isomer, unassigned) [Example 48b], for which the EC50 is 55.4 nM.
Still for that read-out and setting: as for `CCC(CC)COC(=O)[C@H](C)NP(=O)(OC[C@H]1O[C@@](C#N)(c2ccc3c(N)ncnn23)[C@H](O)[C@@H]1O)Oc1cccc2c1CCCC2` (single isomer, unassigned) [Example 135], the figure is 1260 nM; as for `CCC(CC)COC(=O)[C@H](C)NP(=O)(OC[C@H]1O[C@@](C#N)(c2ccc3c(N)ncnn23)[C@H](O)[C@@H]1O)Oc1cccc2c1CCCC2` (single isomer, unassigned) [Example 136], 377 nM.
On the same count and under the same terms, as for `C[C@H](NP(=O)(OC[C@H]1O[C@@](C#N)(c2ccc3c(N)ncnn23)[C@H](O)[C@@H]1O)Oc1ccc(C(C)(C)C)cc1)C(=O)OC1CC2(CCCC2)C1` (stereo partly drawn) [Example 97b, Spiro[3.4]octan-2-yl ((((2R,3S,4R,5R)-5-(4-aminopyrrolo[2,1-f][1,2,4]triazin-7-yl)-5-cyano-3,4-dihydroxytetrahydrofuran-2-yl)methoxy)(4-(tert-butyl)phenoxy)phosphoryl)-L-alaninate], the figure is 106 nM; as for `CC(=O)O[C@H]1[C@@H](OC(C)=O)[C@](C#N)(c2ccc3c(N)ncnn23)O[C@@H]1COP(=O)(N[C@@H](C)C(=O)OC1CC2(CCCC2)C1)Oc1ccc(C(C)(C)C)cc1` (stereo partly drawn) [Example 98b, (2R,3R,4R,5R)-2-(4-aminopyrrolo[2,1-f][1,2,4]triazin-7-yl)-5-((((4-(tert-butyl)phenoxy)(((S)-1-oxo-1-(spiro[3.4]octan-2-yloxy)propan-2-yl)amino)phosphoryl)oxy)methyl)-2-cyanotetrahydrofuran-3,4-diyl Diacetate], 52.2 nM.
Same read-out and setting: as for `CCC(=O)O[C@H]1[C@@H](OC(=O)CC)[C@](C#N)(c2ccc3c(N)ncnn23)O[C@@H]1COP(=O)(N[C@@H](C)C(=O)OC1CC2(CCCC2)C1)Oc1ccc(C(C)(C)C)cc1` (stereo partly drawn) [Example 99b, (2R,3R,4R,5R)-2-(4-aminopyrrolo[2,1-f][1,2,4]triazin-7-yl)-5-((((4-(tert-butyl)phenoxy)(((S)-1-oxo-1-(spiro[3.4]octan-2-yloxy)propan-2-yl)amino)phosphoryl)oxy)methyl)-2-cyanotetrahydrofuran-3,4-diyl Dipropionate], the figure is 66.9 nM.

Still in this test, the particulars now being: human respiratory syncytial virus, HEp-2, 96 h, HEp-2 cells, RSV A2, MOI=4, 4 days, Table 3.
With `CCCOC(=O)[C@H](C)NP(=O)(OC[C@H]1O[C@@](C#N)(c2ccc3c(N)ncnn23)[C@H](O)[C@@H]1O)Oc1ccc(C(C)(C)C)cc1` (single isomer, unassigned) [Example 47a], a half-maximal response (EC50) required 41.6 nM.
The compound `CCCOC(=O)[C@H](C)NP(=O)(OC[C@H]1O[C@@](C#N)(c2ccc3c(N)ncnn23)[C@H](OC(=O)C(C)C)[C@@H]1OC(=O)C(C)C)Oc1ccc(C(C)(C)C)cc1` (single isomer, unassigned) [Example 48a] registered an EC50 of 34 nM.
Take `C[C@H](NP(=O)(OC[C@H]1O[C@@](C#N)(c2ccc3c(N)ncnn23)[C@H](O)[C@@H]1O)Oc1ccc(C(C)(C)C)cc1)C(=O)O[C@H]1CCOC1` (stereo partly drawn) [Example 34, (S)-tetrahydrofuran-3-yl ((((2R,3S,4R,5R)-5-(4-aminopyrrolo[2,1-f][1,2,4]triazin-7-yl)-5-cyano-3,4-dihydroxytetrahydrofuran-2-yl)methoxy)(4-(tert-butyl)phenoxy)phosphoryl)-L-alaninate]: the EC50 is 1500 nM.
On the same count and under the same terms, to `CC(=O)O[C@H]1[C@@H](OC(C)=O)[C@](C#N)(c2ccc3c(N)ncnn23)O[C@@H]1COP(=O)(N[C@@H](C)C(=O)O[C@H]1CCOC1)Oc1ccc(C(C)(C)C)cc1` (stereo partly drawn) [Example 35, (2R,3R,4R,5R)-2-(4-aminopyrrolo[2,1-f][1,2,4]triazin-7-yl)-5-((((4-(tert-butyl)phenoxy)(((S)-1-oxo-1-(((S)-tetrahydrofuran-3-yl)oxy)propan-2-yl)amino)phosphoryl)oxy)methyl)-2-cyanotetrahydrofuran-3,4-diyl Diacetate] belongs 185 nM; to `CC(C)C(=O)O[C@H]1[C@@H](OC(=O)C(C)C)[C@](C#N)(c2ccc3c(N)ncnn23)O[C@@H]1COP(=O)(N[C@@H](C)C(=O)O[C@H]1CCOC1)Oc1ccc(C(C)(C)C)cc1` (stereo partly drawn) [Example 36, (2R,3R,4R,5R)-2-(4-aminopyrrolo[2,1-f][1,2,4]triazin-7-yl)-5-((((4-(tert-butyl)phenoxy)(((S)-1-oxo-1-(((S)-tetrahydrofuran-3-yl)oxy)propan-2-yl)amino)phosphoryl)oxy)methyl)-2-cyanotetrahydrofuran-3,4-diyl bis(2-methylpropanoate)], 102 nM; to `CC(C)C(=O)O[C@H]1[C@@H](OC(=O)C(C)C)[C@](C#N)(c2ccc3c(N)ncnn23)O[C@@H]1CO[P@@](=O)(N[C@@H](C)C(=O)O[C@H]1CCOC1)Oc1ccc(C(C)(C)C)cc1` [Example 38, (2R,3R,4R,5R)-2-(4-aminopyrrolo[2,1-f][1,2,4]triazin-7-yl)-5-((((4-(tert-butyl)phenoxy)(((S)-1-oxo-1-(((S)-tetrahydrofuran-3-yl)oxy)propan-2-yl)amino)phosphoryl)oxy)methyl)-2-cyanotetrahydrofuran-3,4-diyl bis(2-methylpropanoate)], 138 nM.
On the same count and under the same terms, to `CCC(CC)COC(=O)[C@H](C)NP(=O)(OC[C@H]1O[C@@](C#N)(c2ccc3c(N)ncnn23)[C@H](O)[C@@H]1O)Oc1ccc(C#N)cc1` (stereo partly drawn) [Example 39, 2-ethylbutyl ((((2R,3S,4R,5R)-5-(4-aminopyrrolo[2,1-f][1,2,4]triazin-7-yl)-5-cyano-3,4-dihydroxytetrahydrofuran-2-yl)methoxy)(4-cyanophenoxy)phosphoryl)-L-alaninate] belongs 1600 nM.
In turn, `CCC(CC)COC(=O)[C@H](C)NP(=O)(OC[C@H]1O[C@@](C#N)(c2ccc3c(N)ncnn23)[C@H](OC(=O)C(C)C)[C@@H]1OC(=O)C(C)C)Oc1ccc(C#N)cc1` (stereo partly drawn) [Example 40, (2R,3R,4R,5R)-2-(4-aminopyrrolo[2,1-f][1,2,4]triazin-7-yl)-2-cyano-5-((((4-cyanophenoxy)(((S)-1-(2-ethylbutoxy)-1-oxopropan-2-yl)amino)phosphoryl)oxy)methyl)tetrahydrofuran-3,4-diyl bis(2-methylpropanoate)] returned an EC50 of 226 nM.
On the same count and under the same terms, to `CCOC(=O)[C@H](C)NP(=O)(OC[C@H]1O[C@@](C#N)(c2ccc3c(N)ncnn23)[C@H](O)[C@@H]1O)Oc1ccc(C23CC(C2)C3)cc1` (stereo partly drawn) [Example 41, Ethyl ((((2R,3S,4R,5R)-5-(4-aminopyrrolo[2,1-f][1,2,4]triazin-7-yl)-5-cyano-3,4-dihydroxytetrahydrofuran-2-yl)methoxy)(4-(bicyclo[1.1.1]pentan-1-yl)phenoxy)phosphoryl)-L-alaninate] belongs 142 nM; to `C[C@H](NP(=O)(OC[C@H]1O[C@@](C#N)(c2ccc3c(N)ncnn23)[C@H](O)[C@@H]1O)Oc1ccc(C(C)(C)C)cc1)C(=O)OCc1ccccc1` (stereo partly drawn) [Example 57, Benzyl ((((2R,3S,4R,5R)-5-(4-aminopyrrolo[2,1-f][1,2,4]triazin-7-yl)-5-cyano-3,4-dihydroxytetrahydrofuran-2-yl)methoxy)(4-(tert-butyl)phenoxy)phosphoryl)-L-alaninate], 186 nM; to `CC(C)C(=O)O[C@H]1[C@@H](OC(=O)C(C)C)[C@](C#N)(c2ccc3c(N)ncnn23)O[C@@H]1COP(=O)(N[C@@H](C)C(=O)OCc1ccccc1)Oc1ccc(C(C)(C)C)cc1` (stereo partly drawn) [Example 58, (2R,3R,4R,5R)-2-(4-aminopyrrolo[2,1-f][1,2,4]triazin-7-yl)-5-((((((S)-1-(benzyloxy)-1-oxopropan-2-yl)amino)(4-(tert-butyl)phenoxy)phosphoryl)oxy)methyl)-2-cyanotetrahydrofuran-3,4-diyl bis(2-methylpropanoate)], 71.5 nM.
On the same count and under the same terms, as for `CCC(CC)COC(=O)[C@H](C)NP(=O)(OC[C@H]1O[C@@](C#N)(c2ccc3c(N)ncnn23)[C@H](O)[C@@H]1O)Oc1ccc(N2CCOCC2)cc1` (stereo partly drawn) [Example 92, 2-ethylbutyl ((((2R,3S,4R,5R)-5-(4-aminopyrrolo[2,1-f][1,2,4]triazin-7-yl)-5-cyano-3,4-dihydroxytetrahydrofuran-2-yl)methoxy)(4-morpholinophenoxy)phosphoryl)-L-alaninate], the figure is 2490 nM.
The same measure, in the same setting: as for `C[C@H](NP(=O)(OC[C@H]1O[C@@](C#N)(c2ccc3c(N)ncnn23)[C@H](O)[C@@H]1O)Oc1ccc(C(C)(C)C)cc1)C(=O)OC1CC2(CCCC2)C1` (stereo partly drawn) [Example 97a, Spiro[3.4]octan-2-yl ((((2R,3S,4R,5R)-5-(4-aminopyrrolo[2,1-f][1,2,4]triazin-7-yl)-5-cyano-3,4-dihydroxytetrahydrofuran-2-yl)methoxy)(4-(tert-butyl)phenoxy)phosphoryl)-L-alaninate], the figure is 103 nM.
The compound `CCC(=O)O[C@H]1[C@@H](OC(=O)CC)[C@](C#N)(c2ccc3c(N)ncnn23)O[C@@H]1COP(=O)(N[C@@H](C)C(=O)OC1CC2(CCCC2)C1)Oc1ccc(C(C)(C)C)cc1` (stereo partly drawn) [Example 99a, (2R,3R,4R,5R)-2-(4-aminopyrrolo[2,1-f][1,2,4]triazin-7-yl)-5-((((4-(tert-butyl)phenoxy)(((S)-1-oxo-1-(spiro[3.4]octan-2-yloxy)propan-2-yl)amino)phosphoryl)oxy)methyl)-2-cyanotetrahydrofuran-3,4-diyl Dipropionate] came in with an EC50 of 81.7 nM.
Still for that read-out and setting: as for `CC(C)C(=O)O[C@H]1[C@@H](OC(=O)C(C)C)[C@](C#N)(c2ccc3c(N)ncnn23)O[C@@H]1COP(=O)(N[C@@H](C)C(=O)OC1CC2(CCCC2)C1)Oc1ccc(C(C)(C)C)cc1` (stereo partly drawn) [Example 100a, (2R,3R,4R,5R)-2-(4-aminopyrrolo[2,1-f][1,2,4]triazin-7-yl)-5-((((4-(tert-butyl)phenoxy)(((S)-1-oxo-1-(spiro[3.4]octan-2-yloxy)propan-2-yl)amino)phosphoryl)oxy)methyl)-2-cyanotetrahydrofuran-3,4-diyl bis(2-methylpropanoate)], the figure is 111 nM.
